Measured values as given in ChEMBL document CHEMBL1138690, “Carbonic anhydrase inhibitors. Inhibition of the newly isolated murine isozyme XIII with anions” (Bioorg Med Chem Lett, 2004).

Experiments:
[1] = molecular target: Carbonic anhydrase 13 (Mus musculus, UniProt Q9D6N1)
Description: Inhibitory activity against mouse carbonic anhydrase XIII expressed in Escherichia coli TOP 10

[2] = molecular target: Carbonic anhydrase V (Homo sapiens, UniProt Q9Y2D0+P35218)
Description: Inhibitory activity against human carbonic anhydrase V expressed in Escherichia coli

[3] = molecular target: Carbonic anhydrase 1 (Homo sapiens, UniProt P00915)
Chain of Carbonic anhydrase 1 (P00915 whole entry): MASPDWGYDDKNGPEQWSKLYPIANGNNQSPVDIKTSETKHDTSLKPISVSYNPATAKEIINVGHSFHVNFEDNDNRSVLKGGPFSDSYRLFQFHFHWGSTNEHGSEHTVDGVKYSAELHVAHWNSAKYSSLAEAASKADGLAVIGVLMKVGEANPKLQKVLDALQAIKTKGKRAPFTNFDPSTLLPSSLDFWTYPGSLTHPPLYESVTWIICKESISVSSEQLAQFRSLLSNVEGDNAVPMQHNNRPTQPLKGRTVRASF
Description: Inhibitory activity against human carbonic anhydrase I expressed in Escherichia coli

Chain of Carbonic anhydrase 13 (Q9D6N1 whole entry): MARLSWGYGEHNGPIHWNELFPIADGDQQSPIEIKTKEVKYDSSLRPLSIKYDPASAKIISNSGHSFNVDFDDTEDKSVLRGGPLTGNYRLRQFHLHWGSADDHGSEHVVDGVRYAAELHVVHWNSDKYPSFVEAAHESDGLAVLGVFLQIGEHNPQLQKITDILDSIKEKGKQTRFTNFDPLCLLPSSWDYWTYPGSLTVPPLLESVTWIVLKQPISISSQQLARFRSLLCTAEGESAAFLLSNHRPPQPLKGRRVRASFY

N#CO [CYANATE]
Ki [1]: 0.00025 mM

Br [BROMIDE]
Ki [1]: 45 mM

O=S(=O)(O)O [SULFURIC ACID]
Ki [2]: 680 mM | Ki [1]: 267 mM

F [FLUORIDE ION]
Ki [1]: 3 mM

Cl [HYDROCHLORIC ACID]
Ki [2]: 156 mM | Ki [1]: 138 mM

S [HYDROGEN SULFIDE]
Ki [2]: 0.02 mM | Ki [1]: 5.2 mM

O=S(O)O [SULFUROUS ACID]
Ki [3]: 18 mM | Ki [1]: 75.5 mM

O=[N+]([O-])O [NITRIC ACID]
Ki [2]: 16 mM | Ki [1]: 36 mM

OB(O)c1ccccc1 [PHENYLBORONIC ACID]
Ki [2]: 4.51 mM | Ki [1]: 2.85 mM

NS(=O)(=O)O [SULFAMATE]
Ki [2]: 0.12 mM | Ki [1]: 21.5 mM

O=NO [NITROUS ACID]
Ki [1]: 12.6 mM

I [IODIDE]
Ki [2]: 25 mM | Ki [1]: 5.4 mM

NS(N)(=O)=O [SULFAMIDE]
Ki [1]: 0.14 mM

N#CS [THIOCYANIC ACID]
Ki [1]: 0.74 mM
